Results from paper PMC6864818, “Antioxidant, Xanthine Oxidase, α-Amylase and α-Glucosidase Inhibitory Activities of Bioactive Compounds from Rumex crispus L. Root” (Molecules, 2019).
Values after ≈ are worked out from the molar mass of the structure shown. Values joined by “and” are separate entries in the source; they are usually repeats but may differ in a detail not shown here. Equal values may be shown once. Read-outs that look alike come from different tables or passages of the source. Marks after values point to notes of the source that are not given here.

How the values were obtained:
[1] = DPPH radical scavenging assay; details: for IC50: value in brackets
Experimental: (§1) Antioxidant activity of the isolated compounds was determined using DPPH (2,2-diphenyl-1-picrylhydrazyl) radical scavenging assay, ABTS (2,2′-azinobis-(3-ethylbenzothiazoline-6-sulfonic acid)) radical cation decolorization assay, ferric reducing antioxidant power test (FRAP) following previous study [37, 38, 39] with slight modifications.

[2] = ferric reducing antioxidant power test (FRAP); details: for IC50: value in brackets
Experimental: as §1

[3] = ABTS radical cation decolorization assay; details: ABTS radical scavenging; for IC50: value in brackets
Experimental: as §1

[4] = biological target: T1, xanthine oxidase (Homo sapiens, UniProt P47989); experiment: Xanthine oxidase inhibition (XOD), spectrophotometric; assay type: biochemical
T1 sequence (P47989 whole entry, species assumed): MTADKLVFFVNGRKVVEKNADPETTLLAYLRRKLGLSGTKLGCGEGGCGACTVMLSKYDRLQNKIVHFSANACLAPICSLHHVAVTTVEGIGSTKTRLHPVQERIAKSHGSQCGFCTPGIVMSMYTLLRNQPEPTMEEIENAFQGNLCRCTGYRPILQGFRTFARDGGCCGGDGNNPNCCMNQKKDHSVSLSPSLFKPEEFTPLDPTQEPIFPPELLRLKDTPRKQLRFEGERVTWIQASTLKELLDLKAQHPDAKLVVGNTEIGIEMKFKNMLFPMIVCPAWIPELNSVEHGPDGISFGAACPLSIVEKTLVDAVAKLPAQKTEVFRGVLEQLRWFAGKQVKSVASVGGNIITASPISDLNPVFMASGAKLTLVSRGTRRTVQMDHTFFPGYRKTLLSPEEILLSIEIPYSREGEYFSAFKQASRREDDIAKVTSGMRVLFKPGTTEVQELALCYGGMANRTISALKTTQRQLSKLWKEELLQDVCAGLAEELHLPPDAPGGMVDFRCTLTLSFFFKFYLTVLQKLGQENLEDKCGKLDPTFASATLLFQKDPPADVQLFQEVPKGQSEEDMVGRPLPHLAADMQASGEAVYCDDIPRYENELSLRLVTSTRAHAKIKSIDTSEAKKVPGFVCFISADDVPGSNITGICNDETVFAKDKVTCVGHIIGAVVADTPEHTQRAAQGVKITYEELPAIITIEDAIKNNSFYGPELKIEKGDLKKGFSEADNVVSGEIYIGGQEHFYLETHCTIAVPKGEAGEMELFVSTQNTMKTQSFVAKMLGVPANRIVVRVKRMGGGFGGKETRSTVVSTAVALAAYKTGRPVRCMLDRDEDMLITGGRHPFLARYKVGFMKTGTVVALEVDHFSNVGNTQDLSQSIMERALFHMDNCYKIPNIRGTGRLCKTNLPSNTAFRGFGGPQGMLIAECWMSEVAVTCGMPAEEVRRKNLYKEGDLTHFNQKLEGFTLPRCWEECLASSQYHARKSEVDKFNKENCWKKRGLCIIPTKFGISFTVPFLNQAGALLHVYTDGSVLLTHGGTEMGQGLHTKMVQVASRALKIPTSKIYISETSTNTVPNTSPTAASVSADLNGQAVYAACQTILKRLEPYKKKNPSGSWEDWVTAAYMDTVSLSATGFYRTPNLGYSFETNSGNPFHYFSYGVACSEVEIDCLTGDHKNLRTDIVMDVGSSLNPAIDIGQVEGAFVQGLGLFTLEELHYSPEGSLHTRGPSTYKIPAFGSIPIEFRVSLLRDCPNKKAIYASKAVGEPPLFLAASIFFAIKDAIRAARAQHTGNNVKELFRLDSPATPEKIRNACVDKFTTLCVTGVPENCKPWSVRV

[5] = biological target: T2, α-glucosidase (Saccharomyces cerevisiae, UniProt P53341); experiment: α-Glucosidase inhibition (AGI), pNPG substrate; assay type: biochemical
T2 construct: purchased Sigma-Aldrich
T2 sequence (P53341 whole entry): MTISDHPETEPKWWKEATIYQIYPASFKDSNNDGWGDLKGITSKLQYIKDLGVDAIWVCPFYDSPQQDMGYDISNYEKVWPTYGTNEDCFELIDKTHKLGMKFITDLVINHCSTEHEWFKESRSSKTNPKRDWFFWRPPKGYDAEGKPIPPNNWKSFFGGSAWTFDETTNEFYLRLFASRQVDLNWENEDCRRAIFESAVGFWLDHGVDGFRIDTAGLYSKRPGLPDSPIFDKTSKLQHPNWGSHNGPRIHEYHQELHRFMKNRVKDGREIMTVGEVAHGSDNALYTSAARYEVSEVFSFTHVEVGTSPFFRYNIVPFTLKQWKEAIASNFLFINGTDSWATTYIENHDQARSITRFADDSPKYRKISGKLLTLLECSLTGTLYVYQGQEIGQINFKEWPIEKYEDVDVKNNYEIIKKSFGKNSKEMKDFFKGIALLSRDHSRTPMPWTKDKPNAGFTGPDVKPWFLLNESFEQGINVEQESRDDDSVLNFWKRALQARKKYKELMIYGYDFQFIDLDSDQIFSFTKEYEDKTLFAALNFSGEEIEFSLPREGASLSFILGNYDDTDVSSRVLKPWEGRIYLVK
Experimental: The α-glucosidase inhibitory activity of isolated fractions was assayed using a synthetic substrate p-nitrophenyl-α-D-glucopyranoside (pNPG). […] (Table 5).
The anti-α-glucosidase activity of C1–C3 was evaluated using a method described previously with some modifications. In brief, an amount of 20 µL methanolic stock solution of isolated compounds was pre-mixed with an equal volume of 0.1 M potassium phosphate buffer (pH 7) and 40 µL of α-glucosidase (from Saccharomyces cerevisiae, Sigma-Aldrich, St. Louis, MO, USA) enzyme solution (0.5 U/mL in 0.1 M potassium phosphate buffer, pH 7). After 6 min incubation at 25 °C, a 20 µL aliquot of 5 mM p-nitrophenyl-α-D-glucopyranoside (pNPG) substrate (in 0.1 M potassium phosphate buffer, pH 7) was added to each reaction and the mixture was incubated for another 8 min. The reaction was terminated by adding 100 µL of 0.2 M Na2CO3, and absorbance was recorded at 405 nm.

[6] = biological target: T1, xanthine oxidase; details: modified xanthine oxidase inhibition methods; ref [33]; cited from earlier work

| SMILES | IC50 DPPH [1] | IC50 DPPH ([1]; listed as 2) | IC50 [1] | IC50 FRAP [2] | IC50 [2] | IC50 ABTS [3] | IC50 [3] | IC50 [4] | IC50 ([4]; value in brackets) | IC50 ([5]; pNPG) | IC50 ([5]; value in brackets) | IC50 [6] | IC50 DPPH ([1]; listed as 1) |
| --- | --- | --- | --- | --- | --- | --- | --- | --- | --- | --- | --- | --- | --- |
| COc1cc(O)c2c(c1)C(=O)c1cc(C)cc(O)c1C2=O [Fraction C3, 1,8-dihydroxy-3-methoxy-6-methylanthraquinone] | 12.0 ± 0.2^c µg/mL | 12.1 µg/mL (≈ 42.6 µM) | 42.3 µM | 408.6 ± 6.8^b µg/mL | 1440 µM | 44.8 ± 0.8^b µg/mL | 158 µM | 158 µM | 158 µM | 66.5 µM | 66.5 µM |  |  |
| O=C(O)[C@H]1O[C@@H](Oc2cc3oc(-c4ccccc4)cc(=O)c3c(O)c2O)[C@H](O)[C@@H](O)[C@@H]1O [baicalin] |  |  |  |  |  |  |  |  |  |  |  | 215 µM |  |
| Cc1cc(O)c2c(c1)C(=O)c1cccc(O)c1C2=O [Fraction C2, 1,8-dihydroxy-3-methylanthraquinone] | 10.0 ± 0.3^c µg/mL |  | 39.4 µM | 312.6 ± 6.3^c µg/mL | 1230 µM | 34.3 ± 0.7^c µg/mL | 135 µM | 143 µM | 143 µM | 79.1 µM | 79.1 µM |  | 9.8 µg/mL (≈ 38.5 µM) |
| Cc1cc(C(C)(C)C)c(O)c(C(C)(C)C)c1 [BHT, reference compound] | 19.4 µg/mL and 19.2 ± 0.3^b µg/mL |  | 87.1 µM | 422.1 ± 1.1^b µg/mL | 1920 µM | 46.9 ± 0.9^b µg/mL | 213 µM |  |  |  |  |  |  |
| COc1c(O)cc(O)c2c(=O)cc(-c3ccccc3)oc12 [wogonin] |  |  |  |  |  |  |  |  |  |  |  | 157 µM |  |
